Laboratory results from ChEMBL document CHEMBL5321227, “Lysosome-targeting phenalenones as efficient type I/II photosensitizers for anticancer photodynamic therapy” (Eur J Med Chem, 2023).
Activity calls are given as the source filed them. The rule behind the calls is not given here.

Tests used:
[1] = Toxicity in BALB/c mouse xenografted with mouse 4T1 cells assessed as tissue destruction with large spaces in liver at 5 mg/kg,IT(Intratumoral) for 14 days followed by photoirradiation with 500 to 700nm light (0.5 W) for 6 hrs by Hematoxylin and Eosin staining based microscopy; assay type: organism-based; conditions: in vivo, other, 342 h, time 14.25 day
[2] = Drug uptake in heart of BALB/c mouse xenografted with mouse 4T1 cells at 5 mg/kg,IT(Intratumoral) and measured after 6 hrs by fluorescence imaging analysis; assay type: ADME, organism-based; conditions: in vivo, other
[3] = Drug metabolism in human MDA-MB-231 cells assessed as increase in carboxylesterase mediated SR release at 5 uM incubated for 2 hrs by confocal laser scanning microscopy; assay type: ADME, cell-based; conditions: mda-mb-231, 2 h
[4] = Toxicity in BALB/c mouse xenografted with mouse 4T1 cells assessed as tissue destruction with large spaces in kidney at 5 mg/kg,IT(Intratumoral) for 14 days followed by photoirradiation with 500 to 700nm light (0.5 W) for 6 hrs by Hematoxylin and Eosin staining based microscopy; assay type: organism-based; conditions: in vivo, other, 342 h, time 14.25 day
MDA-MB-231 [5] = assay: Anticancer activity against human MDA-MB-231 cells assessed as number of dead cells at 2.5 uM incubated for 12 hrs by calcein-AM and propidium iodide staining based flow cytometry; assay type: functional, cell-based
[6] = Induction of singlet oxygen production in ethanol assessed as singlet oxygen quantum yield at 410nm under photoirradiation with 550nm and 10 mW/cm^2 LED light for 10 to 80 secs by DPBF based microplate reader analysis; assay type: functional; conditions: time 10-80 sec
[7] = Toxicity in BALB/c mouse xenografted with mouse 4T1 cells assessed as histopathological lesion in heart at 5 mg/kg,IT(Intratumoral) for 14 days by Hematoxylin and Eosin staining based microscopy; assay type: organism-based; conditions: in vivo, other, 336 h, time 14 day
[8] = Toxicity in BALB/c mouse xenografted with mouse 4T1 cells assessed as tissue destruction with large spaces in tumor at 5 mg/kg,IT(Intratumoral) for 14 days followed by photoirradiation with 500 to 700nm light (0.5 W) for 6 hrs by Hematoxylin and Eosin staining based microscopy; assay type: organism-based; conditions: in vivo, other, 342 h, time 14.25 day
[9] = Drug metabolism in carboxylesterase (unknown origin) assessed as formation of active photosensitizer 6-amino-5-iodo-1H-phenalen-1-one by measuring increase in fluorescence at 610nM at 10 uM under by fluorescence assay; assay type: ADME; conditions: human
MDA-MB-231 [10] = assay: Anticancer activity against human MDA-MB-231 cells assessed as reduction in cell viability preincubated for 2 hrs followed by photoirradiation with 500 to 700nm and 12 J/cm^2 LED light for 24 hrs by CCK-8 assay; assay type: functional, cell-based; conditions: MDA-MB-231, light or radiation study
[11] = Stability of compound in gamma-glutamyl transpeptidase at 10 uM incubated for 30 mins by fluorescence assay; assay type: physicochemical; conditions: 0.5 h
4T1 = assay: Antitumor activity against mouse 4T1 cells xenografted in BALB/c mouse assessed as tumor growth inhibition at 5 mg/kg,IT(Intratumoral) for 14 days followed by photoirradiation with 500 to 700nm light (0.5 W) for 6 hrs; assay type: functional, organism-based; conditions: time 14.25 day

Which Activity [1] does the source give for `O=C(CCl)Nc1c(I)cc2c3c(cccc13)C(=O)C=C2` here?
The Activity was “Toxic”.

And the Drug uptake [2]?
Its Drug uptake is “Not Active”.

And the Drug metabolism [3]?
The Drug metabolism was “Metabolite_Detected”.

What about the Activity [4] of the same molecule?
The Activity was “Toxic”.

And the Activity (MDA-MB-231 [5])?
Its Activity is “inactive”.

And the Activity [6]?
Its Activity is 0.09.

And the Activity [7]?
The Activity was “Non-Toxic”.

What about the Activity [8] of the same molecule?
The Activity was “Toxic”.

What about the Drug metabolism [9] of the same molecule?
Its Drug metabolism is “Metabolite_Detected”.

What about the IC50 (MDA-MB-231 [10]) of the same molecule?
The IC50 was 1590 nM.

And the Stability [11]?
The Stability was “Stable”.

And the Activity (4T1)?
The Activity was “Active”.
